Usually EC50 stands for the midpoint of the concentration-response curve. Usually half-life stands for the time needed for the level to fall by half in the phase considered. For orientation: bioavailability means dose-corrected exposure relative to a reference, in per cent. A word on the Emax: it is the greatest response seen or fitted, relative to the assay's reference. What is called ED50 is the dose that gives a 50% effect, or the effect in half of the subjects.

Series [1] concerns the target Free fatty acid receptor 1 (Rattus norvegicus, UniProt Q8K3T4). Description: Agonist activity at rat GPR40 expressed in HEK293 cells assessed as increase in intracellular Ca2+ flux by Fluo-4-AM dye based FLIPR assay. The class given is functional, cell-based.
A short description of series [2]: Half life in iv or po dosed monkey. Particulars: rhesus monkey, in vivo. The series is classed as ADME, organism-based, Macaca mulatta.
The nature of series [3]: Oral bioavailability in mouse. The class given is ADME, organism-based. To be noted: in vivo.
Series [4] can be described thus: Half life in iv or po dosed mouse. The series is classed as ADME, organism-based. Particulars: in vivo.
The nature of series [5]: Half life in iv or po dosed rat. The class given is ADME, organism-based. Particulars: in vivo.
The nature of series [6]: Oral bioavailability in dog. The series is classed as ADME, organism-based, Canis lupus familiaris. Particulars: in vivo.
A short description of series [7]: Oral bioavailability in rat. The series is classed as ADME, organism-based. Particulars: in vivo.
The nature of series [8]: Oral bioavailability in monkey. The series is classed as ADME, organism-based, Macaca mulatta. Particulars: rhesus monkey, in vivo.
Series [9] in a line: Half life in iv or po dosed dog. The series is classed as ADME, organism-based, Canis lupus familiaris. Particulars: in vivo.
The target in series [10] is T1, Free fatty acid receptor 1 (Homo sapiens, UniProt O14842). Description: Agonist activity at flag-tagged human GPR40 expressed in HEK293 cells assessed as increase in intracellular Ca2+ flux by FLIPR assay. The class given is functional, cell-based.
In series [11] the test system is Rattus norvegicus. Description: Antidiabetic activity in po dosed Zucker fa/fa rat assessed as reduction in plasma glucose AUC administered for 21 days measuredon day 21 administered 1 hr prior to glucose challenge measured up to 120 mins post glucose challenge by oral glucose tolerance test. The class given is functional.
Series [12] concerns Rattus norvegicus. Description: Antidiabetic activity in po dosed Zucker fa/fa rat assessed as reduction in plasma glucose AUC administered 1 hr prior to glucose challenge measured up to 120 mins post glucose challenge by oral glucose tolerance test. The class given is functional.
Series [13] deals with T1, Free fatty acid receptor 1. Description: Agonist activity at human GPR40 expressed in HEK293 cells assessed as increase in intracellular Ca2+ flux by FLIPR assay relative to linoleic acid. The series is classed as functional, cell-based. (Calcium flux is commonly read through the fluorescence of an indicator in the cells.)
The target of series [14] is T1, Free fatty acid receptor 1. Description: Agonist activity at human GPR40 expressed in CHO cells coexpressing NFAT BLA assessed as increase in intracellular Ca2+ flux by fluo-4-AM dye based FLIPR assay. The series is classed as functional, cell-based.
Series [15] in a line: Half life in human. The class given is ADME.
Series [16] concerns the target T1, Free fatty acid receptor 1. Description: Agonist activity at full length recombinant human GPR40 expressed in CHOK1 cells assessed as intracellular IP3 accumulation by fluorescence assay. The class given is functional, cell-based, CHO-K1.
Series [17] is described as follows: Antidiabetic activity in ZDF rat assessed as induction of glucose-stimulated insulin secretion. The class given is functional.
Series [18] has as its target T1, Free fatty acid receptor 1. Description: Agonist activity at human GPR40 expressed in CHOK cells assessed as increase in intracellular Ca2+ flux by Fluo-4 based assay. The series is classed as functional, cell-based.
For a further series, the system named is Mus musculus. Description: Antidiabetic activity in po dosed albino Balb/c mouse assessed as reduction in plasma glucose AUC administered qd for 3 days measured on day 4 administered 60 mins prior to glucose challenge measured up to 60 mins post glucose challenge by intraperitoneal glucose tolerance test. The series is classed as functional.

Chain of Free fatty acid receptor 1 (Rattus norvegicus, UniProt Q8K3T4) (Q8K3T4 whole entry): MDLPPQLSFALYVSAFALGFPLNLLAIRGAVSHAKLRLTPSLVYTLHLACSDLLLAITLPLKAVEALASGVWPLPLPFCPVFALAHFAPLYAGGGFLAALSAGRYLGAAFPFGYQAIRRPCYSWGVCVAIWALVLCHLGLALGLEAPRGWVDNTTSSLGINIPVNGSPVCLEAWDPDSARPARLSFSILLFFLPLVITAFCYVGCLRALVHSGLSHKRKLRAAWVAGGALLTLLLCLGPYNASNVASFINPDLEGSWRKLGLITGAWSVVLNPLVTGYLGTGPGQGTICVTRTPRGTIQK
T1 sequence (O14842 whole entry): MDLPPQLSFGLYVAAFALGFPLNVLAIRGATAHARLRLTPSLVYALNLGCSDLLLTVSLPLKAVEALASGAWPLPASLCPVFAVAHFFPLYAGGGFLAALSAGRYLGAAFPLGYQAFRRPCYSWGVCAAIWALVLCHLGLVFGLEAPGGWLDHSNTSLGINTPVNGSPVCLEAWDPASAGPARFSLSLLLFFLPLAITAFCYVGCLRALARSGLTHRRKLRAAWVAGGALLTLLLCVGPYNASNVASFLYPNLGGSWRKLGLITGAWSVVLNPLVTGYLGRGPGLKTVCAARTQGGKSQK

As to `CC#C[C@@H](CC(=O)O)c1ccc(OCCOc2cccc(Cl)c2)cc1`, the concentration for a half-maximal effect (EC50) in series [1] came to 10 nM.
`CC#C[C@@H](CC(=O)O)c1ccc(OCc2cccc(-c3ccc(C(F)(F)F)cc3)c2)cc1`: the half-life in [2], in series [4], in series [5] and in [9] was 7.2 to 28 h each time. For the same molecule, the bioavailability in series [3], in series [6], in series [7] and in series [8] was 67 to 100% throughout.
Regarding `COc1ccc(F)c(-c2ccc(Cc3cccc(N4C[C@H](c5cccc(Cl)c5)C[C@@H]4CC(=O)O)c3)c(C)c2)c1`, in series [10], the EC50 came out at 10 nM.
Regarding `CC#C[C@@H](CC(=O)O)c1ccc(OCc2ccc3nc(-c4c(C)cccc4C)nn3c2)cc1`, the ED90 in the series with Rattus norvegicus [11] was 5 mg/kg; in the series on Rattus norvegicus [12], 4.1 mg/kg. Also, in [13], the Emax is 76%.
For the molecule `COc1ccc(C)c(N2CC[C@@H](Oc3ccc(N4N=C(C(F)(F)F)[C@@H](C)[C@@H]4CC(=O)O)cc3)[C@H](C)C2)c1`, the EC50 in series [10] stood at 71 nM.
Take `Cc1cc(OCCO)ccc1-c1cccc(COc2ccc(Cn3oc(=O)[nH]c3=O)cc2)c1`: the half-maximal effective concentration (EC50) in [14] was 380 nM.
As for `Cc1cc(OCCCS(C)(=O)=O)cc(C)c1-c1cccc(COc2ccc3c(c2)OC[C@H]3CC(=O)O)c1`, the half-life in [15] is 28 to 30 h.
With `Cc1cc(OC[C@H]2COC(C)(C)O2)cc(C)c1-c1cccc(COc2ccc(-c3cc(O)no3)cc2)c1C`, in [14], the concentration for a half-maximal effect (EC50) is less than 300 nM.
With `Cc1cc(OCCC(C)O)cc(C)c1-c1ccc(F)c(COc2cc3c(cn2)[C@@H]2C(C(=O)O)[C@@H]2C3)c1` (stereo not given in full), the half-maximal effective concentration (EC50) in series [14] came out at 13 nM.
Turning to `Cc1cc(OCC2CCOC2)cc(C)c1-c1cccc(COc2ccc(C3(CC(=O)O)COC3)cc2)c1` (stereo not given), the concentration for a half-maximal effect (EC50) in series [16] is less than 100 nM.
Take `CCOc1ccc(F)c(N2CC[C@@H](Oc3cnc(N4CC(OC)[C@@H](C)[C@@H]4CC(=O)O)cn3)[C@H](C)C2)c1` (stereo not given in full): the half-maximal effective concentration (EC50) in [10] stood at 42 nM.
Consider `CC#C[C@@H](CC(=O)O)c1ccc(NC(=O)C(=O)Nc2cccc(C(C)(C)C)c2)cc1`, for which the MED in series [17] was 1 mg/kg. Besides, the EC50 in [1] came out at 0.4 nM.
Consider `CO/N=C(\COc1ccc(COc2ccc(C(C#N)CC(=O)O)cc2)cc1)c1ccc(F)cc1` (stereo not given), for which, in series [18], the EC50 is less than 10 nM.
Turning to `CC#C[C@@H](CC(=O)O)c1ccc(OCc2ccc(CN3CCCc4cccc(OC)c43)s2)cc1`, in the series with Mus musculus, the ED50 was 1 mg/kg.
Turning to `O=C(O)CCc1ccc2oc(Nc3c(Cl)c(Cl)cc(Cl)c3Cl)nc2c1`, the half-maximal effective concentration (EC50) in series [1] worked out at 630 nM.

The values above are taken from ChEMBL document CHEMBL3867481, “GPR40 agonists for the treatment of type 2 diabetes mellitus: The biological characteristics and the chemical space” (Bioorg Med Chem Lett, 2016).
